Experimental data published in patent publication US8592403B2, “Diazepine and diazocane compounds as MC4 agonists” (Pfizer Limited, priority 2008, dated 2013).

Experiments:
[1] = biological target: MC4 receptor (Homo sapiens, UniProt P32245); experiment: MC4 EC50 functional potency (protocol E of US2005/0176772 / WO 2005/077935); format: cell-based
Description: The compounds of formula (I) of the present invention have utility as MCR4 agonists in the treatment of various disease states.
MC5 and MC4 EC50 activity was determined as described by assay protocols D and E, respectively, in US2005/0176772 (pages 28-30).

[2] = biological target: T1, CYP3A4 (Homo sapiens, UniProt P08684); experiment: High density DDI 3 μM cocktail screen in human liver microsomes, midazolam probe; format: in vitro ADME; conditions: human, liver microsomes, probe midazolam, read-out: % inhibition 3A4 @ 3 μM
T1 construct: utilizes human liver microsomes together with isoform-specific clinical drug probes; from tissue; host or cells: human liver microsomes
T1 sequence (P08684 whole entry, canonical isoform): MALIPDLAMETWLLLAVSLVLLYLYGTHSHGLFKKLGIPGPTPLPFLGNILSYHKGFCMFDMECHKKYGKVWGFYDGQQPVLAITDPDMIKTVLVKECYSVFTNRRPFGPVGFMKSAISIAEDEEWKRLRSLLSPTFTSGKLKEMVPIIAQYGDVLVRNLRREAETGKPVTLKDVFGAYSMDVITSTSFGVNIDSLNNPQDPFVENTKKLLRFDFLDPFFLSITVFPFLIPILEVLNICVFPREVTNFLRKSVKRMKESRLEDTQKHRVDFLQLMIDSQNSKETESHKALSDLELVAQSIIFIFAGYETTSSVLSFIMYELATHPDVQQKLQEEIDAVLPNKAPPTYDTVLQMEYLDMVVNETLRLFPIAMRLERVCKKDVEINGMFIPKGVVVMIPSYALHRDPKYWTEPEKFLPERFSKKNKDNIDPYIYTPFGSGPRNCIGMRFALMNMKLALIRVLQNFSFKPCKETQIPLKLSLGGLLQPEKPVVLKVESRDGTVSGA
Outline: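 Pooled human liver microsomes incubated with isoform-specific clinical probe substrates as a cocktail (midazolam for CYP3A4), with or without test compound at 3 μM. Metabolite formation followed over time by LC-MS/MS. Inhibition expressed as a single-point percentage.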

[3] = In vitro metabolism rate determination, human liver microsome (HLM) assay; format: in vitro ADME; conditions: human, liver microsomes, read-out: HLM: Clint, app
Outline: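 Human liver microsomes at 0.5 nmol cytochrome P450/ml with 1 μM substrate, pre-warmed 5 min at 37° C, reaction started with NADP; samples taken 0–60 min and terminated. Substrate loss measured; first-order rate constant from log-linear regression converted to half-life or Clint (μl/min/mg protein).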

MC4 receptor, sequence (P32245 whole entry): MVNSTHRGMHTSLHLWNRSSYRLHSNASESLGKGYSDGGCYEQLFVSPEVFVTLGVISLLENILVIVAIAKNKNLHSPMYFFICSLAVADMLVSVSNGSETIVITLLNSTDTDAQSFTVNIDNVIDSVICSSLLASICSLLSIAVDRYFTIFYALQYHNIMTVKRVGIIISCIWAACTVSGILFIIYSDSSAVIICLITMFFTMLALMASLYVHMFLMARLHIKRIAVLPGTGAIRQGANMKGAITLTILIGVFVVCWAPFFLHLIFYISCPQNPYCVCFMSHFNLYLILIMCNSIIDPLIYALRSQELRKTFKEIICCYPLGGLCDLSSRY

Structure (SMILES) | EC50 [1] | inhibition at 3 µM [2] | microsomal CLint at 1 μM [3]
CNC(=O)N1CCN(C(=O)[C@@H]2CN(c3cccnn3)C[C@H]2c2ccc(F)cc2F)CCCC1c1ccccc1 (mixture of isomers) [Example 73] | 12.2 nM | 88% | 53 µL/min/mg
CS(=O)(=O)N1CCN(C(=O)[C@@H]2CN(c3ccc(C#N)nn3)C[C@H]2c2ccc(F)cc2F)CCCC1c1ccc(Cl)cc1 (mixture of isomers) [Example 76] | 50 nM | 33.5% | 11 µL/min/mg
CS(=O)(=O)N1CCN(C(=O)[C@@H]2CN(c3ccc(=O)[nH]n3)C[C@H]2c2ccc(F)cc2F)CCCC1c1ccc(Cl)cc1 (mixture of isomers) [Example 79] | 17.1 nM | 51% | 22 µL/min/mg
CCCC(=O)N1CCN(C(=O)[C@@H]2CN(c3cccnn3)C[C@H]2c2ccc(F)cc2F)CCCC1c1ccccc1 (mixture of isomers) [Example 101] | 7.12 nM | 83% | 143 µL/min/mg
CC(=O)N1CCN(C(=O)[C@@H]2CN(c3cccnn3)C[C@H]2c2ccc(F)cc2F)CCCC1c1ccccc1 (mixture of isomers) [Example 103] | 9.79 nM | 53.8% | 102 µL/min/mg
COc1ccc([C@@H]2CN(c3ccc(=O)n(C)n3)C[C@H]2C(=O)N2CCCC(c3ccc(Cl)cc3)N(S(C)(=O)=O)CC2)c(F)c1 (single isomer, unassigned) [Example 117] | 34.9 nM | 44.5% | 35.1 µL/min/mg
CC(=O)N1CCN(C(=O)[C@@H]2CN(c3ccc4nncn4n3)C[C@H]2c2ccc(Cl)cn2)CCC[C@H]1c1ccc(Cl)cc1 [Example 6, 6-[(3S,4S)-3-{[4-acetyl-5S-(4-chlorophenyl)-1,4-diazocan-1-yl]carbonyl}-4-(5-chloropyridin-2-yl)pyrrolidin-1-yl][1,2,4]triazolo[4,3-b]pyridazine] | 1.12 nM | 54.2% | 13.5 µL/min/mg
COC(=O)N1CCN(C(=O)[C@@H]2CN(c3ccc(=O)n(C)n3)C[C@H]2c2ccc(F)cc2F)CCC[C@@H]1c1ccc(Cl)cc1 [Example 56] | 2.99 nM | 54.2% | 20.5 µL/min/mg
COC(=O)N1CCN(C(=O)[C@@H]2CN(c3ccc(=O)n(C)n3)C[C@H]2c2ccc(F)cc2F)CCC[C@H]1c1ccc(Cl)cc1 [Example 66, methyl (8S-4-chlorophenyl)-4-{[(3S,4R)-4-(2,4-difluorophenyl)-1-(1-methyl-6-oxo-1,6-dihydropyridazin-3-yl)pyrrolidin-3-yl]carbonyl}-1,4-diazocane-1-carboxylate] | 2.99 nM | 54.2% | 20.5 µL/min/mg
COc1ccc([C@@H]2CN(c3ccc(C#N)nn3)C[C@H]2C(=O)N2CCC[C@@H](c3ccc(Cl)cc3)N(C(C)=O)CC2)c(F)c1 [Example 67] | 7.73 nM | 29.5% | 21.4 µL/min/mg
COc1ccc([C@@H]2CN(c3ccc(=O)[nH]n3)C[C@H]2C(=O)N2CCC[C@@H](c3ccc(Cl)cc3)N(C(C)=O)CC2)c(F)c1 [Example 68, 6-[(3S,4R)-3-{[4-acetyl-5S-(4-chlorophenyl)-1,4-diazocan-1-yl]carbonyl}-4-(2-fluoro-4-methoxyphenyl)pyrrolidin-1-yl]pyridazin-3(2H)-one] | 4.3 nM | 29.5% | 13.7 µL/min/mg
CC(=O)N1CCN(C(=O)[C@@H]2CN(c3ccc(C#N)nn3)C[C@H]2c2ccc(Cl)cn2)CCC[C@H]1c1ccc(Cl)cc1 [Example 72] | 26.1 nM | 20.4% | 13 µL/min/mg
CS(=O)(=O)N1CCN(C(=O)C2CN(c3ccc(=O)[nH]n3)CC2c2ccc(F)cc2F)CCCC1c1ccc(F)cc1 (stereo not drawn) [Example 78] | 40.3 nM | 49% | 54 µL/min/mg

Results, then the compound that gave them:

EC50 [1] | inhibition at 3 µM [2] | microsomal CLint at 1 μM [3] | Structure (SMILES)
17.3 nM | 37.1% | 22.1 µL/min/mg | CCC(=O)N1CCN(C(=O)[C@@H]2CN(C(C)(C)C)C[C@H]2c2ccc(F)cc2F)CCC[C@H]1c1ccc(Cl)cc1 [Example 10]
6.73 nM | 53.5% | 23.6 µL/min/mg | CC(C)C(=O)N1CCN(C(=O)[C@@H]2CN(C(C)(C)C)C[C@H]2c2ccc(F)cc2F)CCC[C@H]1c1ccc(Cl)cc1 [Example 11]
13.4 nM | 56.1% | 82.8 µL/min/mg | CC(C)(C)N1C[C@@H](C(=O)N2CCC[C@@H](c3ccc(Cl)cc3)N(C(=O)C3CCC3)CC2)[C@H](c2ccc(F)cc2F)C1 [Example 14]
10.6 nM | 64.4% | 57.4 µL/min/mg | CC(C)(C)C(=O)N1CCN(C(=O)[C@@H]2CN(C(C)(C)C)C[C@H]2c2ccc(F)cc2F)CCC[C@H]1c1ccc(Cl)cc1 [Example 15]
5.46 nM | 50.2% | 18.1 µL/min/mg | CC(C)C(=O)N1CCN(C(=O)[C@@H]2CN(C(C)(C)C)C[C@H]2c2ccc(Cl)cn2)CCC[C@H]1c1ccc(Cl)cc1 [Example 20, 1-{[(3S,4S)-1-tert-butyl-4-(5-chloropyridin-2-yl)pyrrolidin-3-yl]carbonyl}-5S-(4-chlorophenyl)-4-isobutyryl-1,4-diazocane]
20.6 nM | 36% | 28.3 µL/min/mg | COc1ccc([C@@H]2CN(C(C)(C)C)C[C@H]2C(=O)N2CCC[C@@H](c3ccc(Cl)cc3)N(C(C)=O)CC2)c(F)c1 [Example 70]
1.83 nM | 53.8% | 11.7 µL/min/mg | COC(=O)N1CCN(C(=O)[C@@H]2CN(c3ccc(=O)[nH]n3)C[C@H]2c2ccc(OC)cc2F)CCC[C@@H]1c1ccc(Cl)cc1 [Example 90, methyl 8R-(4-chlorophenyl)-4-{[(3S,4R)-4-(2-fluoro-4-methoxyphenyl)-1-(6-oxo-1,6-dihydropyridazin-3-yl)pyrrolidin-3-yl]carbonyl}-1,4-diazocane-1-carboxylate]
20.2 nM | 33% | 46.9 µL/min/mg | COC(=O)N1CCN(C(=O)[C@@H]2CN(C(C)(C)C)C[C@H]2c2ccc(OC)cc2F)CCCC1c1ccc(Cl)cc1 (stereo partly drawn) [Example 91]
1.83 nM | 48% | 23.2 µL/min/mg | COC(=O)N1CCN(C(=O)[C@@H]2CN(c3ccc(=O)n(C)n3)C[C@H]2c2ccc(OC)cc2F)CCC[C@H]1c1ccc(Cl)cc1 [Example 118]
8.53 nM | 54.5% | 18.8 µL/min/mg | COC(=O)N1CCN(C(=O)[C@@H]2CN(c3ccc(=O)n(C)n3)C[C@H]2c2ccc(OC)cc2F)CCC[C@@H]1c1ccc(Cl)cc1 [Example 119, methyl 8R-(4-chlorophenyl)-4-{[(3S,4R)-4-(2-fluoro-4-methoxyphenyl)-1-(1-methyl-6-oxo-1,6-dihydropyridazin-3-yl)pyrrolidin-3-yl]carbonyl}-1,4-diazocane-1-carboxylate]
